Assay: Observation of the crystals using a scanning electron microscope; measurement of the crystal thickness
Type: physicochemical
Conditions: scanning electron microscope image
Protocol: The ascorbic acid crystals contained in the ascorbic acid dispersion material of the present invention obtained in Examples 1 to 3 were observed using a scanning electron microscope. 3. 5 mL of the ascorbic acid dispersion material of the present invention obtained in Examples 1 to 3 as an analyte and 0.5 g of commercially available ascorbic acid crystal powder were both infused into 20 mL of the dispersion medium prepared in 2, lightly shaken, and mixed. 6. The operations of 4 and 5 were further carried out to remove the solvent component of the ascorbic acid dispersion material of the present invention, following which the operation of 4 was further carried out to precipitate particles of the ascorbic acid, and remove the supernatant, and the particles were dried at a low temperature to obtain particulate powder. […]

Crystal shape: indeterminate crystal shape
SMILES: O=C1O[C@H]([C@@H](O)CO)C(O)=C1O [ascorbic acid crystal powder, ascorbic acid]

— patent publication US11234920B2, “Manufacturing method of an ascorbic acid dispersion material” (priority 2015, dated 2022)
